Data set [1] deals with P. acnes. The experiment in a line: Transmission electron microscopy of P. acnes. The class given is cell-based, Propionibacterium acnes. Particulars: 1 mg/mL, 24 hours. The text has this: FIG. 4A. Electron Microscopy of P. acnes control without stimulus. […] Samples were visualized at 80 kV on a JEOL 100CX electron microscope. Bacteria were magnified according to the scale indicated below the main image, with higher magnification images located in the lower left inset.
This implies cellular lysis and death of the majority of bacterium, leaving only remaining unaffected bacteria to replicate and grow.
Resveratrol induced structural changes in the cell membrane of P. acnes. […] This implies cellular lysis and death of the majority of bacterium, leaving only remaining unaffected bacteria to replicate and grow.

The subject of data set [2] is Propionibacterium acnes ATCC strain 6919. Kind of data set: Colony Forming Unit (CFU) assay of P. acnes over 10 days. The class given is cell-based. As to conditions: for bactericidal activity in comparison at equal concentration: 75 μg/mL, FIG. 2D; for antimicrobial activity over time (words): CFU assay, irrespective of concentration. The protocol:
FIG. 2A. […] Bacterial growth was assessed in terms of the growth factor of P. acnes (Y-axis), determined by the change in the number of bacteria compared to baseline control (set at 1 on Day 0). Concentrations were obtained over a 10-day period and plotted logarithmically. FIG. 2B. Colony Forming Unit (CFU) assays of P. acnes incubated with Benzoyl Peroxide (BPO). FIG. 2C. […] FIG. 2D. […] Having described the invention in general terms, the following specific example is offered for purpose of illustration and for illustration only, and no intention to limit the invention is to be inferred there from. […] Resveratrol and benzoyl peroxide were obtained from Sigma-Aldrich St. Louis, Mo. […] Propionibacterium acnes ATCC […] strain 6919 was grown anaerobically at 37° C. in Reinforced Clostridial Media (Oxoid) for 3 days and collected in the exponential phase of growth by centrifugation. Bacteria were washed with pH 7 sodium phosphate buffer supplemented by 0.03% Trypticase Soy Media and quantified by reading with a spectrophotometer at 600 nm and applying a conversion of ˜1×10^8 bacteria=1 absorbance unit. […] Samples were incubated anaerobically at 37° C. for intervals of 1, 2, 3, 7, and 10 days and then plated on brucella agar with 5% sheep blood supplemented with hemin and vitamin K (Remel). […] The results were plotted logarithmically as multiples of the initial concentration, which was designated as 1 at Day 0.

The next data set deals with primary human monocytes. The experiment in a line: MTS cytotoxicity assay. The class given is cell-based. Particulars: for monocytes killed: 10 μg/mL. As for the experimental part:
FIG. 3B. Cytotoxicity Assay. […] The percentage of cells still viable after 16 hour incubation (compared to 1% DMSO control) were assessed (Y-axis) by measuring absorbance of the sample, which is proportional to the number of viable cells.
The cytotoxicity of resveratrol, benzoyl peroxide, and the combination of resveratrol and benzoyl peroxide was also assessed. (see FIG. 3B) We analyzed the cell viability of human monocytes using the MTS cytotoxicity assay. […] The direct cell cytotoxicity of benzoyl peroxide may explain the decrease in IL-12 activity, more a result of direct cell death, than actual anti-inflammatory properties of benzoyl peroxide.
We analyzed the cell viability of human monocytes using the MTS cytotoxicity assay.
On the technique in general: Tetrazolium assays rely on reduction of a dye to a coloured formazan, in cell work by metabolically active cells.

For data set [3], the system named is IL-12 secretion by primary human monocytes. The experiment in a line: Cytokine IL-12 assay in monocytes stimulated with P. acnes sonicate. The class given is cell-based. Particulars: compared with 1% DMSO / untreated. The text has this:
FIG. 3A. Cytokine IL-12 Assay.
The anti-inflammatory properties of resveratrol, benzoyl peroxide and the combination of resveratrol and benzoyl peroxide are exemplified by the cytokine IL-12 assay. […] To address this, we next investigated the cytotoxic effects of the various treatment groups.
To address this, we next investigated the cytotoxic effects of the various treatment groups.

For data set [4], the system named is P. acnes. Kind of data set: P. acnes growth inhibition, 48 hour incubation and plating at different dilutions. In kind it is cell-based, Propionibacterium acnes. The protocol:
Serial dilutions of P. acnes plated without treatment provided qualitative comparisons to experimental groups treated with RES. Significant growth inhibition of P. acnes was first noted at 50 μg/mL and was dose dependent. […] (FIG. 2A).

This note sets out measurements from patent publication US9549905B2, “Treatment of inflammatory and infectious skin disorders” (The Regents of the University of California, priority 2011, dated 2017).

Each structure is given as a SMILES string. Where “and” joins values, the source holds several entries; their conditions need not be identical. Identical values can stand only once. A value given as a limit tells only on which side of the number the result lay.

Turning to `O=C(OOC(=O)c1ccccc1)c1ccccc1` [BPO, Benzoyl Peroxide], the “structural changes of P. acnes” value in the data set with P. acnes [1] is listed as “structurally identical to control”. Moreover, the “fold more bactericidal than RES” value in data set [2] (50 μg/mL, at 24 hours) is given as roughly 1000 ×. Further, the “bactericidal activity in comparison at equal concentration” value in data set [2] (10-day period) is “short but immediate bactericidal activity”. Besides, the “antimicrobial activity over time (words)” value is recorded as “minimal effect on bacterial growth after 24 hours” in data set [2] and “virtually no activity remaining after 48 hours” in data set [2] (listed as benzoyl peroxide). For the same compound, the “lowest dose with bactericidal activity” value in data set [2] (data not shown) was 25 µg/mL. For the same compound, in the data set with primary human monocytes (16 hour incubation, relative to 1% DMSO control), the monocytes killed result is given as “greater than 90%”. Besides, the “lowest concentration toxic to monocytes” value in the data set on primary human monocytes (human, 16 h) was determined as 5 µg/mL. The “concentration from which IL-12 secretion was diminished” value in data set [3] was no less than 2.5 µg/mL.
With `Oc1ccc(C=Cc2cc(O)cc(O)c2)cc1` [RES, 3,5,4′-trihydroxystilbene], in the data set with P. acnes [1], the “structural changes of P. acnes” value was “loss of membrane definition due to intramembranous edema and loss of well defined extracellular fimbrial structures”. Further, the “growth equivalent to dilution of untreated P. acnes plates” value with P. acnes [4] (50 μg/mL, 48 hours) is on record as roughly 1000 × dilution. Further, in the data set on P. acnes [4] (48 hours incubation, about 1.33×10^6 bacteria), the “concentration at which significant growth inhibition of P. acnes was first noted” value came to 50 µg/mL. Moreover, the “bactericidal activity in comparison at equal concentration” value in data set [2] (10-day period) is on record as “slow but sustained bactericidal activity”. The “concentrations with sustained and dose dependent bactericidal effect” value in data set [2] (10-day period, FIG. 2A) was 75 µg/mL and 100 µg/mL. In addition, in data set [2], the “antimicrobial activity over time (words)” value is given as “slow but sustained antimicrobial response”. Besides, the monocytes killed result in the data set on primary human monocytes (human, 16 h) was “approximately 35%”. The “concentration from which IL-12 secretion was diminished” value in data set [3] was no less than 10 µg/mL.
